Test results as given in patent US12528802B2, “Heterocyclic compound” (Takeda Pharmaceutical Company Limited, priority 2019, dated 2026).

Each compound was assayed against T1, glucosylceramide synthase (Homo sapiens, UniProt Q16739) (assay: Glucosylceramide synthase (GCS) enzyme assay, microsome fraction, C8 glucosylceramide quantified by Rapidfire MS/MS). Conditions: test compound 10 μM; 1.7 μM UDP-glucose, 3 μM C8 ceramide; room temperature 60 min.
T1 construct: made in house; host or cells: Expi293F cells (transient expression, pcDNA3.3-TOPO vector); microsome fraction used as enzyme source
T1 sequence (Q16739 1-394): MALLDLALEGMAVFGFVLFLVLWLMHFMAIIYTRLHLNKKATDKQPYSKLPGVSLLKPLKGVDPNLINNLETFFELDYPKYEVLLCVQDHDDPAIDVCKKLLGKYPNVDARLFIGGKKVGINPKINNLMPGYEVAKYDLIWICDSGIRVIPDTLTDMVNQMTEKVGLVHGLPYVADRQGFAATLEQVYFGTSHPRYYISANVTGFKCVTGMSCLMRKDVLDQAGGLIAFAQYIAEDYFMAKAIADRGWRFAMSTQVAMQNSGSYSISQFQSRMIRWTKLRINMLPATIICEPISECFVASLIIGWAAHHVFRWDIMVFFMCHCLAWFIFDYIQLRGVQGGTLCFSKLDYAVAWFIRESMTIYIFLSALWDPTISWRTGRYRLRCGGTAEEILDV
Format: biochemical
How it was run: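 Test compound, 10 μM final, was run against human GCS from transfected Expi293F microsome fractions, using substrate solution of 6 μM C8 ceramide (in DOPC liposomes) plus 3.4 μM UDP-glucose, pH 7.5 Tris buffer, 60 min, room temperature. Product C8 glucosylceramide measured by Rapidfire MS/MS against an internal standard, % inhibition referenced to no-enzyme and DMSO wells.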

GCS enzyme inhibitory rate at 10 μM (%) (% of control)	SMILES
97	O=C1c2ccnc(-c3ccc(F)cc3OCC(F)(F)F)c2CN1c1ccc(C2(O)CCOC2)c(F)c1 (racemic) [Example 235, rac-2-[3-fluoro-4-(3-hydroxyoxolan-3-yl)phenyl]-4-[4-fluoro-2-(2,2,2-trifluoroethoxy)phenyl]-2,3-dihydro-1H-pyrrolo[3,4-c]pyridin-1-one]
99	Cc1cncc(OCC(F)(F)F)c1-c1nccc2c1CN(c1ccc(OC(F)F)cc1)C2=O [Example 198, 2-[4-(difluoromethoxy)phenyl]-4-[3-methyl-5-(2,2,2-trifluoroethoxy)pyridin-4-yl]-2,3-dihydro-1H-pyrrolo[3,4-c]pyridin-1-one]

Same assay, conditions: test compound 10 μM; 1.7 μM UDP-glucose, 3 μM C8 ceramide; room temperature 60 min; read-out: GCS enzyme inhibitory rate at 10 μM (%) (% of control)

SMILES	inhibition at 10 µM [%]
CC(C)(C)[Si](C)(C)OC1(c2ccc(N3Cc4c(ccnc4-c4ccccc4OCC(F)(F)F)C3=O)nc2)CC1 [Example 266, 2-[5-(1-{[tert-butyl(dimethyl)silyl]oxy}cyclopropyl)pyridin-2-yl]-4-[2-(2,2,2-trifluoroethoxy)phenyl]-2,3-dihydro-1H-pyrrolo[3,4-c]pyridin-1-one]	99
COCCOc1cc(F)ccc1-c1nccc2c1CN(c1ccc(OC(F)F)nc1)C2=O [Example 113, 2-[6-(difluoromethoxy)pyridin-3-yl]-4-[4-fluoro-2-(2-methoxyethoxy)phenyl]-2,3-dihydro-1H-pyrrolo[3,4-c]pyridin-1-one]	66
O=C1c2ccnc(-c3ccccc3OCC(F)(F)F)c2CN1c1ccc(C(O)(C(F)(F)F)C(F)(F)F)cc1 [Example 260, 2-[4-(1,1,1,3,3,3-hexafluoro-2-hydroxypropan-2-yl)phenyl]-4-[2-(2,2,2-trifluoroethoxy)phenyl]-2,3-dihydro-1H-pyrrolo[3,4-c]pyridin-1-one]	100
NC(=O)c1ccc(-c2nccc3c2CN(c2ccc(F)cc2)C3=O)c(OC(F)F)c1 [Example 40, 3-(difluoromethoxy)-4-[2-(4-fluorophenyl)-1-oxo-2,3-dihydro-1H-pyrrolo[3,4-c]pyridin-4-yl]benzamide]	54
O=C1CC2=C(CN(c3ccc(F)cc3)C2=O)N(c2ccc(F)cc2OCC(F)(F)F)N1 [Example 115, 6-(4-fluorophenyl)-1-[4-fluoro-2-(2,2,2-trifluoroethoxy)phenyl]-6,7-dihydro-1H-pyrrolo[3,4-c]pyridazine-3,5(2H,4H)-dione]	65
CC(C)(F)c1cc2c(c(-c3ccc(F)cc3OCC(F)(F)F)n1)CN(c1ccc(F)cc1)C2=O [Example 385, 2-(4-fluorophenyl)-6-(2-fluoropropan-2-yl)-4-[4-fluoro-2-(2,2,2-trifluoroethoxy)phenyl]-2,3-dihydro-1H-pyrrolo[3,4-c]pyridin-1-one]	99
O=C1c2ccnc(-c3ccccc3OC(F)F)c2CN1c1ccc(OC(F)F)cn1 [Example 64, 4-[2-(difluoromethoxy)phenyl]-2-[5-(difluoromethoxy)pyridin-2-yl]-2,3-dihydro-1H-pyrrolo[3,4-c]pyridin-1-one]	96
CC(C)(O)COc1ccc(N2Cc3c(ccnc3-c3ccccc3OCC(F)(F)F)C2=O)nc1 [Example 297, 2-[5-(2-hydroxy-2-methylpropoxy)pyridin-2-yl]-4-[2-(2,2,2-trifluoroethoxy)phenyl]-2,3-dihydro-1H-pyrrolo[3,4-c]pyridin-1-one]	100
CC(C)(O)c1ccc(N2Cc3c(ncnc3-c3ccc(F)cc3OCC(F)(F)F)C2=O)cc1 [Example 192, 4-[4-fluoro-2-(2,2,2-trifluoroethoxy)phenyl]-6-[4-(2-hydroxypropan-2-yl)phenyl]-5,6-dihydro-7H-pyrrolo[3,4-d]pyrimidin-7-one]	88
O=C1c2ccnc(-c3ccccc3OCC(F)(F)F)c2CN1c1ccc(C(O)C2CC2)nc1 (racemic) [Example 317, rac-2-{6-[cyclopropyl(hydroxy)methyl]pyridin-3-yl}-4-[2-(2,2,2-trifluoroethoxy)phenyl]-2,3-dihydro-1H-pyrrolo[3,4-c]pyridin-1-one]	99
O=C1c2ccnc(-c3ccc(F)cc3OCC(F)(F)F)c2CN1c1cnn(CC(F)(F)F)c1 [Example 83, 4-[4-fluoro-2-(2,2,2-trifluoroethoxy)phenyl]-2-[1-(2,2,2-trifluoroethyl)-1H-pyrazol-4-yl]-2,3-dihydro-1H-pyrrolo[3,4-c]pyridin-1-one]	91
O=C1c2ccnc(-c3ccccc3OCC(F)(F)F)c2CN1c1ccc(OC(F)F)nc1 [Example 75, 2-[6-(difluoromethoxy)pyridin-3-yl]-4-[2-(2,2,2-trifluoroethoxy)phenyl]-2,3-dihydro-1H-pyrrolo[3,4-c]pyridin-1-one]	100
Cn1nc2c(c1-c1ccccc1OCC(F)(F)F)CN(c1ccc(F)cc1)C2 [Example 206, 5-(4-fluorophenyl)-2-methyl-3-[2-(2,2,2-trifluoroethoxy)phenyl]-2,4,5,6-tetrahydropyrrolo[3,4-c]pyrazole]	66
CC(O)c1cc2c(c(-c3ccccc3OCC(F)F)n1)CN(c1ccc(OC(F)F)cc1)C2=O (racemic) [Example 358, rac-4-[2-(2,2-difluoroethoxy)phenyl]-2-[4-(difluoromethoxy)phenyl]-6-(1-hydroxyethyl)-2,3-dihydro-1H-pyrrolo[3,4-c]pyridin-1-one]	100

Results, then the compound that gave them:

inhibition at 10 µM [%]	SMILES
85	O=C1c2ccnc(-c3ccc(F)cc3OCC(F)(F)F)c2CN1c1ccc(C(F)(F)F)cn1 [Example 61, 4-[4-fluoro-2-(2,2,2-trifluoroethoxy)phenyl]-2-[5-(trifluoromethyl)pyridin-2-yl]-2,3-dihydro-1H-pyrrolo[3,4-c]pyridin-1-one]
96	O=C1c2ccnc(-c3ccc(F)cc3OCC(F)(F)F)c2CN1c1ccc(C(O)C(F)(F)F)cc1 (racemic) [Example 251, rac-4-[4-fluoro-2-(2,2,2-trifluoroethoxy)phenyl]-2-[4-(2,2,2-trifluoro-1-hydroxyethyl)phenyl]-2,3-dihydro-1H-pyrrolo[3,4-c]pyridin-1-one]
98	CC(C)(O)c1ccc(N2Cc3c(ccnc3-c3ccc(F)cc3OCC(F)F)C2=O)cc1 [Example 241, 4-[2-(2,2-difluoroethoxy)-4-fluorophenyl]-2-[4-(2-hydroxypropan-2-yl)phenyl]-2,3-dihydro-1H-pyrrolo[3,4-c]pyridin-1-one]
88	CC(C)(O)c1ccc(N2Cc3c(ccnc3-c3ccc(F)cc3OCC(F)(F)F)C2=O)cn1 [Example 197, 4-[4-fluoro-2-(2,2,2-trifluoroethoxy)phenyl]-2-[6-(2-hydroxypropan-2-yl)pyridin-3-yl]-2,3-dihydro-1H-pyrrolo[3,4-c]pyridin-1-one]
98	CC(C)(CO)c1ccc(N2Cc3c(ccnc3-c3ccc(F)cc3OCC(F)(F)F)C2=O)cc1 [Example 253, 4-[4-fluoro-2-(2,2,2-trifluoroethoxy)phenyl]-2-[4-(1-hydroxy-2-methylpropan-2-yl)phenyl]-2,3-dihydro-1H-pyrrolo[3,4-c]pyridin-1-one]
94	O=C1c2ccnc(-c3ccc(F)cc3OCC(F)(F)F)c2CN1c1ccc(OC2COC2)cc1 [Example 106, 4-[4-fluoro-2-(2,2,2-trifluoroethoxy)phenyl]-2-{4-[(oxetan-3-yl)oxy]phenyl}-2,3-dihydro-1H-pyrrolo[3,4-c]pyridin-1-one]
76	O=C1c2ccnc(-c3ccccc3OCC(F)(F)F)c2CN1c1ccc(O)cc1 [Example 347, 2-(4-hydroxyphenyl)-4-[2-(2,2,2-trifluoroethoxy)phenyl]-2,3-dihydro-1H-pyrrolo[3,4-c]pyridin-1-one]
95	O=C1c2cc(C3CCCCC3)nc(-c3ccc(F)cc3OCC(F)(F)F)c2CN1c1ccc(F)cc1 [Example 381, 6-cyclohexyl-2-(4-fluorophenyl)-4-[4-fluoro-2-(2,2,2-trifluoroethoxy)phenyl]-2,3-dihydro-1H-pyrrolo [3,4-c]pyridin-1-one]
100	O=C1c2ccnc(-c3ccc(F)cc3OCC(F)(F)F)c2CN1c1ccc(OC2CCOCC2)cc1 [Example 98, 4-[4-fluoro-2-(2,2,2-trifluoroethoxy)phenyl]-2-{4-[(oxan-4-yl)oxy]phenyl}-2,3-dihydro-1H-pyrrolo[3,4-c]pyridin-1-one]
89	O=C(c1ccc(N2Cc3c(ccnc3-c3ccc(F)cc3OCC(F)(F)F)C2=O)cc1)N1CC(F)(F)C1 [Example 181, 2-[4-(3,3-difluoroazetidine-1-carbonyl)phenyl]-4-[4-fluoro-2-(2,2,2-trifluoroethoxy)phenyl]-2,3-dihydro-1H-pyrrolo[3,4-c]pyridin-1-one]
100	N#CC1(c2ccc(N3Cc4c(ccnc4-c4ccccc4OCC(F)(F)F)C3=O)cc2)CC1 [Example 271, 1-(4-{1-oxo-4-[2-(2,2,2-trifluoroethoxy)phenyl]-1,3-dihydro-2H-pyrrolo[3,4-c]pyridin-2-yl}phenyl)cyclopropane-1-carbonitrile]
98	O=C1c2ccnc(-c3ccc(F)cc3OCC(F)(F)F)c2CN1c1ccc(OC(F)F)cn1 [Example 55, 2-[5-(difluoromethoxy)pyridin-2-yl]-4-[4-fluoro-2-(2,2,2-trifluoroethoxy)phenyl]-2,3-dihydro-1H-pyrrolo[3,4-c]pyridin-1-one]
